Test results reported in US20110189260A1, “USE OF ZINC CHELATORS TO INHIBIT BIOFILM FORMATION” (UNIVERSITY OF CINCINNATI, priority 2008, published 2011).
“And” between values parts separate entries of the source, which are not always exact repeats. Equal values may be shown once. Read-outs that look alike come from different tables or passages of the source.

How the values were obtained:
[1] = test system: Staphylococcus aureus Strain Rosenbach SA113; assay: Biofilm formation assay in FBS pre-treated 96 well plates, crystal violet (Example 9); assay type: cell-based; settings: SA113, 2% glucose, 36-40 hours
Description: In addition, 96 well microtiter plates were pre-treated with fetal bovine serum (FBS) at 4° C. for at least 24 hours prior to use. The FBS was aspirated prior to addition of chelators and glucose for the assay. […] The 96 well plates were then incubated 36-40 hours statically at 37° C. Media was aspirated by pipet and wells were washed twice with filtered water. The plates were dried by inversion for 1 hour, and stained with 0.1% crystal violet for 15 minutes. Crystal violet was then aspirated by pipet and washed once with filtered water. The plates were then read on a spectrophotometer at a wavelength of 570 nm.

[2] = Mg; cited from earlier work
[3] = Ca; cited from earlier work
[4] = test system: Methicillin-Resistant Staphylococcus epidermidis Strain RP62a; assay: Biofilm formation assay in 96 well plates, crystal violet, absorbance at 570 nm (Example 8); assay type: cell-based; settings: 18-24 hours, 37° C.
Description: S. epidermidis strain RP62a (ATCC 35984) was obtained as a glycerol stock from ATCC. 3 ml overnight cultures were grown in tryptic soy broth (TSB, BD Biomedical), shaking at 37° C., and cultures were diluted 1:200 in TSB for use in the biofilm assay.
Each chelator (prepared in Examples 1-6) was added directly to a 96 well microtiter plate in a series of dilutions. 20 μl of each stock solution (200, 400, 800, 1600, 3200, 6400, 13000, or 26000 μM chelator) was added to each well. 200 μl of the 1:200 dilution of RP62a bacterial culture (as previously specified) was added to each well. Controls with bacterial culture media only and bacterial culture media plus vehicle controls only (i.e., final concentrations 10 mM HCl, 10% ethanol, or 10 mM NaOH) were added to wells alone without chelator. The 96 well plates were then incubated 18-24 hours statically at 37° C. Media was aspirated by pipet and wells were washed twice with filtered water. The plates were dried by inversion for 1 hour, and stained with 0.1% crystal violet for 15 minutes. Crystal violet was then aspirated by pipet and washed once with filtered water. The plates were then read on a spectrophotometer at a wavelength of 570 nm. An absorbance greater than 0.1 indicates biofilm formation.

[5] = test system: S. epidermidis RP62A biofilms; assay: RP62A biofilms on polystyrene visualized with crystal violet (FIG. 3A, 3C, 4, 7, 8); assay type: cell-based
[6] = Sr; cited from earlier work
[7] = test system: S. epidermidis RP62A biofilms; assay: RP62A biofilms on polystyrene visualized with crystal violet (FIG. 3A, 3C, 4, 7, 8); assay type: cell-based; remark: listed apart in the source
Description: (§1) FIG. 3. (A) S. epidermidis RP62A biofilms formed on polystyrene and were visualized with crystal violet; addition of the Zn^2+ chelator DTPA (≧30 μM) inhibits biofilm formation. Representative wells have been scanned (bottom). Untreated (“RP62A”) and vehicle (“HCl”) controls are shown. Error bars show standard deviation (* indicates p<0.05 relative to untreated control; n=3); (B) Methicillin-resistant S. aureus USA300 biofilms form on fibronectin-coated plates but are inhibited by addition of DTPA (≧30 μM). (*: p<0.05; n=4); (C) Addition of 5-20 μM ZnCl2 at a minimal inhibitory dose of DTPA (30 μM) rescues biofilm formation by RP62A.
FIG. 4. […] (*: p<0.05 relative to RP62A control at the relevant Zn^2+ concentration; n=3); (B) Dose response of biofilm inhibition by MBP-Brpt1.5 at a fixed 1 mM ZnCl2 concentration. (*: p<0.0005; n=3); (C) The “zinc zipper” model for intercellular adhesion in staphylococcal biofilms mediated by zinc-dependent self-association of G5 domains.
FIG. 7. […] All data at 30 μM DTPA show statistically significant decreases compared to no-treatment control (RP62A). Statistically significant increases over the 0 μM MnCl2/30 μM DTPA datapoint are marked with an asterisk (*).
To test the physiological role of Zn^2+-mediated G5 adhesion in the formation of staphylococcal biofilms, both S. epidermidis and S. aureus biofilms were grown in culture in the presence or absence of the Zn^2+ chelator diethylenetriaminepentaacetic acid (DTPA). DTPA was non-toxic at all concentrations tested (up to 100 μM). S. epidermidis strain RP62A formed robust biofilms when cultured in media alone, but biofilm growth was inhibited by non-toxic doses of DTPA (≧30 μM) (FIG. 3A).
To determine whether Zn^2+-dependent biofilm formation is specifically dependent upon G5 domain-mediated self-assembly, soluble Brpt1.5 was added to S. epidermidis RP62A biofilms as a maltose-binding protein (MBP) fusion. Because of the higher Zn^2+ concentrations required to induce dimerization in the short construct compared to full-length Aap, inhibition by MBP-Brpt1.5 was tested at Zn^2+ concentrations ranging up to 1 mM. RP62A biofilms were inhibited by soluble MBP-Brpt1.5 in the presence of 0.75 and 1 mM ZnCl2, whereas addition of MBP alone had no effect (FIG. 4A). […] Thus, addition of even a single intact zinc adhesion module in a soluble form is capable of inhibiting biofilm formation, highlighting the role of this domain as a Zn^2+-dependent adhesion module in staphylococcal biofilms.

[8] = test system: Methicillin-resistant S. aureus USA300 biofilms; assay: USA300 biofilms on fibronectin-coated plates (FIG. 3B, 3D); assay type: cell-based
Description: as §1
S. aureus strain USA300, which is responsible for recent epidemic outbreaks of community-acquired methicillin-resistant S. aureus (MRSA) infections, formed biofilms on fibronectin-coated plates. As observed for S. epidermidis, the MRSA biofilms were inhibited by Zn^2+ chelation (≧30 μM DTPA) (FIG. 3B). […] Like S. epidermidis, the MRSA strain USA300 could be rescued by the addition of 15-20 μM ZnCl2 (FIG. 3D). Importantly, at the minimal inhibitory concentration of DTPA (30 μM), biofilm growth by both staphylococcal species could be rescued by the addition of 5-20 μM ZnCl2; these Zn^2+ concentrations are similar to the physiological range in human plasma (12-16 μM resting concentration).

[9] = Zn; cited from earlier work
[10] = Mn; cited from earlier work
[11] = test system: Methicillin-Resistant Staphylococcus aureus Strain USA300; assay: Biofilm formation assay in fibronectin pre-treated 96 well plates, crystal violet (Example 11); assay type: cell-based; settings: USA300, 2% glucose, 36-40 hours
Description: S. aureus strain USA300 was obtained from Daniel Hassett (University of Cincinnati) as a glycerol stock. 3 ml overnight cultures were grown in blood-heart infusion broth (BHI) shaking at 37° C., where cultures were diluted 1:25 for use in the biofilm assay. 2% glucose (20 ul from a 20% glucose stock) was added to each well prior to the addition of bacterial culture to promote biofilm formation. In addition, 96 well microtiter plates were pre-treated with human fibronectin (BD biomedical purchased from Fisher scientific). The fibronectin was aspirated prior to addition of chelators and glucose for the assay. Each chelator (prepared in Examples 1-6) was added directly to a 96 well microtiter plate in a series of dilutions. 20 μl of each stock solution (200, 400, 800, 1600, 3200, 6400, 13000, or 26000 μM chelator) was added to each well. 200 μl of the 1:25 dilution of USA300 bacterial culture dilution (as previously specified) were added to each well. Controls with bacterial culture media only and bacterial culture media plus vehicle controls only (final concentrations 10 mM HCl, 10% ethanol, and 10 mM NaOH) were added to wells alone without chelator. The 96 well plates were then incubated 36-40 hours statically at 37° C. Media was aspirated by pipet and wells were washed twice with filtered water. The plates were dried by inversion for 1 hour, and stained with 0.1% crystal violet for 15 minutes. Crystal violet was then aspirated by pipet and washed once with filtered water. The plates were then read on a spectrophotometer at a wavelength of 570 nm. An absorbance greater than 0.1 indicates biofilm formation.

[12] = target: Brpt2.5 (Aap construct with two G5 domains and the C-terminal cap) (Staphylococcus epidermidis); assay: sedimentation equilibrium AUC, monomer-dimer association at 5 mM Zn
[13] = target: Brpt2.5 (Aap construct with two G5 domains and the C-terminal cap) (Staphylococcus epidermidis); assay: sedimentation equilibrium AUC, monomer-dimer association at 2 mM Zn
[14] = target: Brpt2.5 (Aap construct with two G5 domains and the C-terminal cap) (Staphylococcus epidermidis)
[15] = target: Brpt2.5 (Aap construct with two G5 domains and the C-terminal cap) (Staphylococcus epidermidis); assay: sedimentation equilibrium AUC at 0 mM Zn; sequence mass monomer 35,971, dimer 71,942
[16] = target: Brpt2.5 (Aap construct with two G5 domains and the C-terminal cap) (Staphylococcus epidermidis); assay: sedimentation equilibrium AUC at 10 mM Zn; sequence mass monomer 35,971, dimer 71,942
[17] = target: Aap (Accumulation-associated protein) on Staphylococcus epidermidis strain RP62A cells (Staphylococcus epidermidis); assay: cell-based or functional assay
[18] = target: the molecule itself; assay: sedimentation velocity analytical ultracentrifugation; self-association with and without 10 mM ZnCl2, normalized c(s) [panel E]
[19] = target: the molecule itself; assay: sedimentation equilibrium AUC, monomer-dimer association at 10 mM Zn; 10 mM Zn (ZnCl2), sedimentation equilibrium
[20] = target: the molecule itself
[21] = target: the molecule itself; assay: sedimentation equilibrium AUC, monomer-dimer association at 2 mM Zn; 2 mM Zn (ZnCl2), sedimentation equilibrium
[22] = target: the molecule itself; assay: sedimentation equilibrium AUC, monomer-dimer association at 5 mM Zn; 5 mM Zn (ZnCl2), sedimentation equilibrium
[23] = test system: G5 domains of Aap (Zn^2+-mediated monomer-dimer association); settings: 10 mM ZnCl2, pH 7.4 to 6.0, FIG. 6B
Description: The dashed line label (- - -) represents cation-free Brpt1.5; (B) Far-UV CD spectrum of Brpt1.5 in the presence (squares) and absence (triangles) of Zn; (C) Sedimentation equilibrium analysis of Zn^2+-mediated dimerization of Brpt1.5 (triangles) and Brpt2.5 (squares). […] Error bars show 95% confidence intervals; (D) Linked equilibrium plot of Zn binding by Brpt1.5.
(A) Sedimentation velocity analysis of the Zn^2+-dependent dimerization of Brpt1.5 as a function of pH in 20 mM Tris, 20 mM MES, 50 mM NaCl, and 10 mM ZnCl2. […] Dashed lines show data collected in the absence of Zn^2+, and solid lines show data collected at 10 mM ZnCl2.
To analyze the linked equilibria between dimerization and Zn^2+ binding, the logarithm of the dimerization association constant was plotted against the logarithm of the free Zn^2+ concentration to reveal the net number of Zn^2+ ions participating in the dimerization interface.

O=C(O)CN(CCN(CC(=O)O)CC(=O)O)CCN(CC(=O)O)CC(=O)O [DTPA, diethylenetriaminepentaacetic acid]
chelator concentration at which biofilms were inhibited (absorbance of 0.1 or less) [1]: 20 µM | affinity for DTPA (log K) [2]: 9.3 | affinity for DTPA (log K) [3]: 10.74 | chelator concentration at which biofilms were diminished but not cleared [4]: 20 µM | chelator concentration at which biofilms were inhibited (absorbance of 0.1 or less) [4]: 40 µM | disruption of pre-formed biofilms [5]: did not disrupt | affinity for DTPA (log K) [6]: 9.68 | concentration that inhibits biofilm formation ([7]; RP62A on polystyrene, FIG. 3A): ≥ 30 µM | concentration that inhibits biofilm formation ([8]; USA300 on fibronectin-coated plates, FIG. 3B): ≥ 30 µM | affinity for DTPA (log K) [9]: 18.75 | affinity for DTPA (log K) [10]: 15.5 | chelator concentration at which biofilms were diminished but not cleared [11]: 20 µM

[Cl-].[Cl-].[Zn+2] [ZnCl2]
concentration that rescues biofilm formation ([7]; RP62A, at minimal inhibitory dose of DTPA (30 μM), FIG. 3C): 5 to 20 µM | concentration that rescues biofilm formation ([8]; USA300, at minimal inhibitory dose of DTPA (30 μM), FIG. 3D): 15 to 20 µM

Brpt2.5 (Aap construct with two G5 domains and the C-terminal cap)
Kd [12]: 0.072 µM | Kd [13]: 25.5 µM | EC50 of [Zn2+] for dimerization [14]: 3700 µM | Mexperimental (molecular weight) [15]: 37000 | Mexperimental (molecular weight) [16]: 78500

MBP-Brpt1.5 (soluble Brpt1.5 as a maltose-binding protein fusion) (from UniProt Q8CQD9 1089-1296)
concentration that completely abolished RP62A biofilm formation at 1 mM ZnCl2 [17]: 10 µM and 22 µM

B1: H75A/H85A Brpt1.5 mutant (other)
chain: VDGDSITSTEEIPFDKKREFDPNLAPGTEKVVQKGEPGTKTITTPTTKNPLTGEKVGEGEPTEKITKQPVDEIVAYGGEQIPQGAKDEFDPNAPVDSKTEVPGKPGVKNPDTGEVVTPPVDDVTKYGPVDGDSITSTEEIPFDKKREFDPNLAPGTEKVVQKGEPGTKTITTPTTKNPLTGEKVGEGKSTEKVTKQPVDEIVEYGPTK
notes: also called histidine-null mutant
binding result [18]: binds

B2: Brpt1.5 (C-terminal G5 domain of the B-repeat region of Aap followed by the C-terminal 79 amino acid half-repeat) (other)
chain: VDGDSITSTEEIPFDKKREFDPNLAPGTEKVVQKGEPGTKTITTPTTKNPLTGEKVGEGEPTEKITKQPVDEIVHYGGEQIPQGHKDEFDPNAPVDSKTEVPGKPGVKNPDTGEVVTPPVDDVTKYGPVDGDSITSTEEIPFDKKREFDPNLAPGTEKVVQKGEPGTKTITTPTTKNPLTGEKVGEGKSTEKVTKQPVDEIVEYGPTK
notes: also called wild-type Brpt1.5; zinc adhesion module
Kd [19]: 0.353 µM | EC50 of [Zn2+] for dimerization [20]: 5400 µM | Kd [21]: 113 µM | Kd [22]: 5.06 µM

B3: Brpt1.5: single G5 domain of Aap B-repeat region followed by the C-terminal 79 amino acid half-repeat (protein)
chain: VDGDSITSTEEIPFDKKREFDPNLAPGTEKVVQKGEPGTKTITTPTTKNPLTGEKVGEGEPTEKITKQPVDEIVHYGGEQIPQGHKDEFDPNAPVDSKTEVPGKPGVKNPDTGEVVTPPVDDVTKYGPVDGDSITSTEEIPFDKKREFDPNLAPGTEKVVQKGEPGTKTITTPTTKNPLTGEKVGEGKSTEKVTKQPVDEIVEYGPTK
apparent pKa of dimer to monomer transition [23]: 6.7
